Data taken from US9453008B2, “Antithrombotic and antiatherosclerotic agent and method for producing same (variants)” (PROTON OOO, priority 2011, dated 2016).

Test system: human neutrophils
Assay: FMLP-induced generation of superoxide anion radical by human neutrophils
Assay type: cell-based
Details: neutrophils weakened by pathological processes
Excerpt: We have also studied the effect of the compound on formylmethionyl-leucyl-phenylalanine (FMLP)—induced generation of superoxide anion radical (O2^−.) by human neutrophils, weakened by pathological processes (histiocytosis, stage 2 hypertension). Such experimentation was chosen due to the fact, that, in order to perform a complete phagocytosis with complete destruction of pathogenic microorganisms, phagocytes, including neutrophils, generate the so-called reactive oxygen species (ROS), including oxygen radicals and compounds easily converting into such radicals. Superoxide anion radical (O2^−.) hydroxyl radical (OH.) and lipid hydroxyperoxides (ROO*) also belong to AOF. All these compounds have one unpaired electron on outer molecular orbital, giving them high reactivity, which causes their interaction with cell molecules: proteins, RNA, DNA, etc, accompanied by the loss of their biological activity.

CN1CC(CO)O/C1=C(C#N)/C=C1/Nc2ccccc2C1=O (stereo not shown) [Compound I, 2-[2-Cyano-2-[5-(hydroxymethyl)-3-methyl-1,3-oxazolidin-2-ylidene]ethylidene]indolin-3-one]
Effect on reduced ability of human neutrophils to generate reactive oxygen species: briefly enhances
